# From patent US5837728A, “9-cis retinoic acid esters and amides and uses thereof” (priority 1995, dated 1998)
# Legend:
# [1] = tested on: Human neonatal foreskin fibroblasts; assay: Growth of human neonatal foreskin fibroblasts (cell number); format: cell-based; conditions: for Number of fibroblasts: two days
# Excerpt: (§1) Human neonatal foreskin keratinocytes and human neonatal foreskin fibroblasts were isolated and grown in monlayer culture. Culture medium for keratinocytes was Keratincyte Growth Medium (KGM) from Clonetics, Inc., San Diego. Calif. The culture medium for fibroblasts was Dulbecco's Modified Eagle's Medium (DMEM) supplemented with non-essential amino acids and 10% fetal bovine serum. The culture medium was obtained from GIBCO, Grand Island, N.Y. and the FBS was from Hyclone Labs, Inc., Logan, Utah.
# Cells at passage 2-4 were plated in wells of a 24 well dish at approximately 5×10^4 cells per well in their respective culture medium. Incubation was at 37° C. with 5% CO2. After the cells attached and spread overnight, they were washed two times in serum-free keratincyte basal medium (KBM) and incubated in 1 ml of KBM or in 1 ml of KGM. Compound IV was added in varying concentrations to the wells. All-trans-retinoic acid (or no treatment) was added to control wells. The cells were incubated for an additional two days for fibroblasts and three days for keratinocytes, and were then harvested and counted. The effect of IV and of the controls are shown for both cell types in Tables 9 and 10: […]
# [2] = tested on: Human neonatal foreskin keratinocytes; assay: Growth of human neonatal foreskin keratinocytes (cell number); format: cell-based; conditions: for Number of keratinocytes, KGM / Number of keratinocytes, KMB: three days
# Excerpt: as §1
# Cells at passage 2-4 were plated in wells of a 24 well dish at approximately 5×10^4 cells per well in their respective culture medium. Incubation was at 37° C. with 5% CO2. After the cells attached and spread overnight, they were washed two times in serum-free keratincyte basal medium (KBM) and incubated in 1 ml of KBM or in 1 ml of KGM. Compound IV was added in varying concentrations to the wells. […] The cells were incubated for an additional two days for fibroblasts and three days for keratinocytes, and were then harvested and counted.
# [3] = tested on: ornithine decarboxylase (ODC); assay: ODC/Retinoid Bioassay: inhibition of TPA induced ornithine decarboxylase activity; format: in vivo, CD-1 mice; conditions: for ODC activity reduction: topical, 1.7 nM (as printed in Table 2), TPA induced
# Procedure: The ODC/Retinoid Bioassay is based on the method of Verma, A. K. and Boutwell, R. K., Cancer Res. (1977) 37:2196-2201. The ODC assay measures a compounds effect on the prevention of the induction of ODC, namely the effect of the retinoid compound on the inhibition of the tumor promoter 12-O-tetradecanoylphorbol-13-acetate (TPA) induced ODC activity. The assay is carried out using CD-1 mice (aged 7 to 9 weeks). The dorsal hair of the mice is shaved 3-4 days before testing. Four mice are used for each point. The test retinoids, at one of two dose levels (1.7 and 17 nmoles) dissolved in 0.2 ml of acetone is applied topically to the back of each shaved mouse. A single dose of TPA ([…]) is applied to the back of each treated mouse 30 minutes later. Control groups are treated with either acetone alone, TPA, or tretinoin. The mice are sacrificed by cervical dislocation 5 hours after TPA treatment.
# The dorsal skin encompassing the shaved and TPA exposed area is excised and placed in a 100 ml beaker containing distilled water maintained at 51° C.-57° C. The skin is soaked for 50-70 seconds at this temperature with intermittent stirring. The skin is placed epidermis side up in a chilled (0°-5° C.) stainless steel plate and the epidermal layer is scraped off with a razor blade. The epidermal layers from the 4 mice are pooled and placed in a homogenization tube with 2 ml of ODA buffer ([…] with […] pyridoxal phosphate, […] ethylenediaminetetraacetic acid (EDTA), 1 mM dithiothreitol, pH 7.5). The pooled epidermal layers are homogenized for 15 seconds at 0° C. using a Polytron homogenizer at a setting of 7.5. The homogenate is centrifuged at 30,000×g and the supernatant fraction is pipetted into a storage tube and frozen for about 72 hours.
# The homogenate is assayed for ODC activity as described by Verma and Boutwell to measure the release of ^14 CO2 from labeled DL(1-14C) ornithine. Incubations are carried out in disposable centrifuge tubes with center well holders containing filter paper impregnated with sodium hydroxide to absorb ^14 CO2. The incubation mixture consisted of 90 μl of L-ornithine, 350 μl of ODC buffer, 100 μl of 14C-ornithine (1.32 nm, Sp. Act:4.4 pCi/pM) and 10 μl of test sample. After incubation at 37° C. for 45 minutes, 0.5 ml of 2M chilled citric acid (4° C.) is added and incubation is continue for an additional 30 minutes to insure complete absorption of ^14 CO2. The filter paper is removed from the center well holders and set in 1 ml of water in capped scintillation vials for at least 1 hour before adding RBI 3820 scintillation cocktail. Radioactivity is measured in a Tri Carb Scintillation Counter. Results are expressed as pmol of ^14 CO2 released in 30 minutes per milligram of protein based on the specific activity of DL-14C-ornithine. The results are expressed in Table 2 below as the % reduction in ODC activity as compared to the control, for the compounds of each of the preceding Examples: […]
# [4] = tested on: sebaceous gland; assay: Oral hamster sebaceous gland reduction assay; format: in vivo, male Syrian golden hamsters; set-up: key to the marks not given beside the values; conditions: 32 mg/kg
# Procedure: An oral assay for hamster sebaceous gland reduction is conducted.
# Hamsters are dosed orally with the test compound and vehicle alone. The reduction in sebaceous gland size is estimated microscopically in relation to the control. The assay is unique and proprietary to Ortho Pharmaceutical Corp. and is based upon the work of Plewig et al. (1977) and Gomex et al. (1980). Plewig, et al., Hamster Ear Model for Sebaceous Glands, J. Invest. Derm. 68: 171-176 (1977). Gomez, et al., Effect of 13-cis-Retinoic Acid on the Hamster Flank Organ, J. Invest. Derm. 74: 392-397 (1980).
# For oral (p.o.) studies, male Syrian golden hamsters are […] at 5 ml/kg, once daily, five consecutive days/week for two or three weeks. Modified but similar dosing schedules could be used. Control hamsters are dosed with vehicle alone at 5 ml/kg. Following final treatment (up to 72 hours), the hamsters are sacrificed in a CO2 atmosphere. Samples of each test site are placed into 10% buffered formalin and histologically prepared. Serial sections of each sample are stained (H&E) and examined microscopically.
# The reduction in sebaceous gland size is estimated microscopically in relation to the control treated sites. To quantify sebaceous gland size, cross-sectional areas are measured with an image analyzer system.
# [5] = tested on: pseudocomedone (utriculus) of the rhino mouse; assay: Topical rhino mouse pseudocomedone (utriculus) reduction assay; format: in vivo; set-up: Utriculus reduction (Table 1) / Utriculus reduction (Table 3): key to the marks not given beside the values; conditions: concentration 0.1 (unit not given)
# Procedure: A topical assay to test for pseudocomedone (utriculus) reduction in the rhino mouse is conducted.
# Each test compound and a vehicle control is applied topically to the dorsal trunk of the rhino mouse. The utriculus diameters are measured with a ocular micrometer. […] Kligman, et al., The Effect on Rhino Mouse Skin of Agents which Influence Keratinization and Exfoliation, J. Invest. Derm. […] Van Scott, Experimental Animal Integumental Models for Screening Potential Dermatologic Drugs, In Pharmacology of the Skin, eds. […] Mann, Hair Loss and Cyst Formation in Hairless and Rhino Mutant Mice, Anat. Rec. […] Mezick, et al., Topical and Systemic Effects of Retinoids on Horn-Filled Utriculus Size in the Rhino Mouse. A Model to Quantify Antikeratinizing Effects of Retinoids, J. Invest. Derm. […] Mezick, et al., Anti-Acne Activity of Retinoids in the Rhino Mouse, In Models in Dermatology, eds.
# (§2) The dorsal trunk of the rhino mouse is the test site. Each test compound is dissolved in alcohol:propylene glycol (70:30, v:v) or other suitable vehicle and topically applied (0.1 ml) to the dorsal trunk once daily, five consecutive days/week for two weeks. Also, administration may be oral (p.o.) in a suitable vehicle. Following treatment, the animals are sacrificed by cervical dislocation. The treated dorsal trunk skin is removed from the animal and placed into 0.5% acetic acid for up to 18 hours at approximately 4° C. After this, the epidermis with the acne cysts is separated from the underlying dermis. The sheets of epidermis are processed by routine methods to permanent whole mounts for microscopic examination. Also, full-thickness samples may be taken, stained (H&E), and examined by light microscopy.
# The utriculus diameters are measured with an ocular micrometer to compare effects of test compounds to vehicle control and/or reference compound on cyst reduction. Light microscopy is used to determine effects on cell differentiation.
# Another topical assay is conducted following the procedure described above.
# Each test compound and a vehicle control was applied topically to the dorsal trunk of the rhino mouse. The utriculus diameters are measured with a ocular micrometer. […] Kligman, et al., J. Invest. […] Van Scott, Pharmacology of the Skin, eds. […] Mann, Anat. […] Mezick, et al, J. Invest. […] Mezick et al., Models in Dermatology, eds.
# as §2, with “(70:30,v:v)” for “(70:30, v:v)”, “weeks.” for “weeks. Also, administration may be oral (p.o.) in a suitable vehicle.”, “"acne cysts"” for “acne cysts”, “are” for “may be”, “(H&E)” for “(H&E),”, “microscope.” for “microscopy.”
smiles,measurement,setting,value
CC1=C(/C=C/C(C)=C\C=C\C(C)=C\C(=O)OCC(=O)C(C)(C)C)C(C)(C)CCC1 [Compound IV],Number of fibroblasts,[1]; 0.1 μg/ml,6.4 ± 0.6 × 10^4 cells
same,Number of fibroblasts,[1]; 0.25 μg/ml,5.8 ± 0.1 × 10^4 cells
same,Number of fibroblasts,[1]; 0.5 μg/ml,5.5 ± 0.8 × 10^4 cells
same,Number of fibroblasts,[1]; 1.0 μg/ml,7.9 ± 0.1 × 10^4 cells
same,Number of fibroblasts,[1]; 5.0 μg/ml,8.5 ± 0.6 × 10^4 cells
same,Number of fibroblasts,[1]; 10.0 μg/ml,7.5 ± 0.9 × 10^4 cells
same,Effect on fibroblasts (summary of Tables 9 and 10),[1]; compared with retinoic acid,less active result with fibroblasts
same,"Number of keratinocytes, KGM",[2]; 0.10 μg/ml,27.4 ± 0.1 × 10^4 cells
same,"Number of keratinocytes, KMB",[2]; 0.10 μg/ml,13.1 ± 0.5 × 10^4 cells
same,"Number of keratinocytes, KGM",[2]; 0.25 μg/ml,25.9 ± 0.4 × 10^4 cells
same,"Number of keratinocytes, KGM",[2]; 0.5 μg/ml,22.5 ± 0.1 × 10^4 cells
same,"Number of keratinocytes, KMB",[2]; 0.5 μg/ml,13.8 ± 2.4 × 10^4 cells
same,"Number of keratinocytes, KGM",[2]; 1.0 μg/ml,21.2 ± 0.8 × 10^4 cells
same,"Number of keratinocytes, KMB",[2]; 1.0 μg/ml,14.0 ± 0.9 × 10^4 cells
same,"Number of keratinocytes, KGM",[2]; 5.0 μg/ml,6.4 ± 0.1 × 10^4 cells
same,"Number of keratinocytes, KMB",[2]; 5.0 μg/ml,11.2 ± 1.2 × 10^4 cells
same,"Number of keratinocytes, KGM",[2]; 10.0 μg/ml,4.5 ± 0.2 × 10^4 cells
same,"Number of keratinocytes, KMB",[2]; 10.0 μg/ml,8.4 ± 0.2 × 10^4 cells
same,Effect on keratinocytes (summary of Tables 9 and 10),[2]; compared with retinoic acid,"potent ""retinoid"" effect on keratinocytes"
"CC1=C(/C=C/C(C)=C\C=C\C(C)=C\C(=O)OCC(=O)COC(=O)/C=C(C)/C=C/C=C(C)\C=C\C2=C(C)CCCC2(C)C)C(C)(C)CCC1 [Compound 4, 1,3-bis-(9-cis-retinoyloxy)-2-propanone]",ODC activity reduction,[3],+++
"CCCCCCCCCC(=O)OCC(=O)COC(=O)/C=C(C)/C=C/C=C(C)\C=C\C1=C(C)CCCC1(C)C [Compound 3, 1-(9-cis-retinoyloxy)-3-decanoylyoxy-2-propanone]",ODC activity reduction,[3],+++
same,Sebaceous gland reduction,[4],+++
"CCCCCCCC/C=C\CCCCCCCC(=O)OCC(COC(=O)/C=C(C)/C=C/C=C(C)\C=C\C1=C(C)CCCC1(C)C)OC(=O)CCCCCCC/C=C\CCCCCCCC (stereo not drawn) [Compound 9, 1-(9-cis-retinoyloxy)-2,3-dioleoylpropane]",ODC activity reduction,[3],++
"CC1=C(/C=C/C(C)=C\C=C\C(C)=C\C(=O)OCC(=O)c2ccccc2)C(C)(C)CCC1 [Compound 5, 9-cis-retinoyloxy methyl phenyl ketone]",Utriculus reduction (Table 3),[5],++
same,ODC activity reduction,[3],++
"CC1=C(/C=C/C(C)=C\C=C\C(C)=C\C(=O)OCC(=O)CO)C(C)(C)CCC1 [Compound 8, 1-(9-cis-retinoyloxy)-3-hydroxy-2-propanone]",ODC activity reduction,[3],+++
"CC1=C(/C=C/C(C)=C\C=C\C(C)=C\C(=O)ON2C(=O)CCC2=O)C(C)(C)CCC1 [Compound 10, Succinimidyl 9-cis-retinoate]",Utriculus reduction (Table 3),[5],++
same,ODC activity reduction,[3],+++
"CC1=C(/C=C/C(C)=C\C=C\C(C)=C\C(=O)OCOC(=O)C(C)(C)C)C(C)(C)CCC1 [Compound 6, 9-cis-retinoyloxymethyl 2,2-dimethylpropanoate]",Utriculus reduction (Table 3),[5],+++
same,ODC activity reduction,[3],+++
"CCCCCCCCCCCCCC(=O)O[C@@H]1[C@@H](C)[C@@]2(O)[C@@H](C=C(CO)C[C@]3(O)C(=O)C(C)=C[C@@H]23)[C@@H]2C(C)(C)[C@]12OC(C)=O [TPA, 12-O-tetradecanoylphorbol-13-acetate, reference compound]",ODC activity reduction (TPA control),"[3]; TPA 17.0 nM, control",0 nM ^14 CO2 /30 min/mg Protein
